Assays:
[1] = target: T1, vanilloid TRPV1 receptor (Rattus norvegicus, UniProt O35433); experiment: Ca2+ fluorescence measurements in cultured rat trigeminal ganglia neurons: inhibition of capsaicin-induced calcium mobilisation; format: cell-based; conditions: capsaicin 0.1 μM; for IC50: 10 minutes pre-incubation, mean and 95% fiducial limits, read-out: IC50 inhibiting capsaicin-evoked [Ca2+]i mobilization; for concentration giving complete inhibition of the response to capsaicin / threshold concentration that produced an inhibitory effect: compounds incubated 10 minutes prior to capsaicin challenge
T1 construct: rat trigeminal neuronal cells, that therefore were identified as TRPV1 expressing neurons; endogenous in cells; host or cells: primary trigeminal ganglion neurons from 2-day-old Sprague-Dawley rats
T1 sequence (O35433 whole entry): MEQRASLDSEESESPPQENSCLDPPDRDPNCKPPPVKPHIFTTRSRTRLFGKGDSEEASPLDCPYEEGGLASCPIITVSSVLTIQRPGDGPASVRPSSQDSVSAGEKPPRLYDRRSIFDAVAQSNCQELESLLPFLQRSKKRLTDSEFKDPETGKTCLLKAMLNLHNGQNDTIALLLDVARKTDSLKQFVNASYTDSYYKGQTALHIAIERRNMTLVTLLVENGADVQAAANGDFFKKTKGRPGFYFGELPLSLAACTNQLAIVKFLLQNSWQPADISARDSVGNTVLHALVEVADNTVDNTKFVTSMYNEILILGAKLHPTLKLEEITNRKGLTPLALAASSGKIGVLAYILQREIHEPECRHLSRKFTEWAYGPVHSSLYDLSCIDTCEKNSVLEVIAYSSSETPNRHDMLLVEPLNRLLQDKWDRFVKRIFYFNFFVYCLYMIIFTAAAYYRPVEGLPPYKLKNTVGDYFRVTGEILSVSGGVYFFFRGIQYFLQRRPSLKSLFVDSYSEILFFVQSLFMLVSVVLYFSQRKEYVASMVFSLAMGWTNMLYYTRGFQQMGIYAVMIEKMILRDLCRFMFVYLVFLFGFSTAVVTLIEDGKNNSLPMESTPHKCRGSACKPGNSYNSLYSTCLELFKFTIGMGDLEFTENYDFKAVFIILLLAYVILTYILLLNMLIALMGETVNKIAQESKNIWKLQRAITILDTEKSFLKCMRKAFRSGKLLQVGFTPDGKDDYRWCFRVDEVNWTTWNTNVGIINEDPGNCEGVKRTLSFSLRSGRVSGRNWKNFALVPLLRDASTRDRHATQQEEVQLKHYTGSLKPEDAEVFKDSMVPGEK
Procedure: Ca^2+ Fluorescence Measurements in Cultured Rat Trigeminal Ganglia
Newborn rats (2 days old) were terminally anaesthetized and decapitated. Trigeminal ganglia were removed and rapidly placed in a cold phosphate buffered solution (PBS) before being transferred to collagenase/dispase (1 mg/ml dissolved in Ca^2+-Mg^2+-free PBS) for 35 min. at 37° C.^4.
After the enzymatic treatment the ganglia were rinsed three times with Ca^2+-Mg^2+-free PBS and then placed in 2 ml of cold DMEM supplemented with 10% foetal bovine serum (FBS, heat inactivated), 2 mM L-glutamine, 100 μ/ml penicillin and […] streptomycin. The ganglia were then dissociated into single cells by several passages through a series of syringe needles (23 G down to 25 G). Finally, the medium and ganglia cells sieved through a […] filter to remove debris and taken up with 8 ml of DMEM medium and centrifuged (200×g for 5 min.). The final cell pellet was re-suspended in DMEM medium (supplemented with 100 ng/ml mouse Nerve Growth Factor (mouse-NGF-7S) and cytosine-β-D-arabino-furanoside free base (ARA-C) […]). The cells were plated on poly-L-lysine (8.3 mM) and laminin (5 mM) coated 25 mm glass cover slips and kept for 2 to 5 days at 37° C. in a humidified incubator gassed with 5% CO2 and air. Plated neurons were loaded with Fura-2-AM-ester (3 μM) in Ca^2+ buffer solution of the following composition (mM): CaCl2 1.4, KCl 5.4, MgSO4 0.4, NaCl 135, D-glucose 5, HEPES 10 with BSA 0.1%, at pH 7.4, for 40 min at 37° C., washed twice with the Ca^2+ buffer solution and transferred to a chamber on the stage of a Nikon eclipse TE300 microscope. The dye was excited at 340 and 380 nm to indicate relative [Ca^2+]i changes by the F340/F380 ratio recorded with a dynamic image analysis system (Laboratory Automation 2.0, RCS, Florence, Italy). Capsaicin (0.1 μM) and ionomycin (5 μM) were added to the chamber. A calibration curve using a buffer containing Fura-2-AM-ester and determinant concentrations of free Ca^2+ was used to convert the obtained data from F340/F380 ratio to [Ca^2+]i (nM)^5.
The effects of Ia, Ib and Ic were tested against capsaicin-induced calcium mobilisation; Ia, Ib and Ic were incubated for 10 minutes prior to the capsaicin challenge. The inhibitory effect of the reference TRPV1 antagonist, capsazepine, was also tested.

[2] = tested on: rat trigeminal neuronal cells; experiment: Ca2+ fluorescence measurements in cultured rat trigeminal ganglia neurons: KCl-evoked [Ca2+]i mobilization; format: cell-based; conditions: 5 mM KCl
[3] = target: T1, vanilloid TRPV1 receptor; experiment: Wiping test in rats (capsaicin-induced wiping movements); format: in vivo; conditions: intraperitoneal; for effect on capsaicin-induced wiping in rats: 15 minutes prior to capsaicin challenge; for ED50 capsaicin-induced wiping: 15 minutes prior to capsaicin challenge (capsaicin 0.1%, 50 μl on conjunctiva), mean and 95% fiducial limits
Procedure: Newborn and adult Sprague-Dawley rats (˜250 g) were used (Harlam, Italy). All experiments complied with the national guidelines and were approved by the regional ethics committee.
The irritant effect (induction of wiping movements) of capsaicin was assessed by applying capsaicin 0.1% (50 μl) on the rat conjunctiva and the number of wiping movements was recorded during the 60 s period that followed the application. In another set of experiments, the rats were treated intraperitoneally with different doses of Ia and Ic and capsaicin-induced wiping was studied.

| Compound | IC50 [1] | concentration giving complete inhibition of the response to capsaicin [1] | threshold concentration that produced an inhibitory effect [1] | Mobilization of [Ca2+]i evoked by KCl [2] | effect on capsaicin-induced wiping in rats [3] | ED50 capsaicin-induced wiping [3] |
| --- | --- | --- | --- | --- | --- | --- |
| COc1cc(CNC(=S)NCc2ccc(C(C)(C)C)cc2)c(I)cc1O [Ia, 1-(4-tert-butyl)-3-(2-iodo-4-hydroxy-5-methoxybenzyl) thiourea] | 3.48 nM | 0.1 µM | 0.1 nM | not affected | significantly reduced | 2.76 (2.05-3.35) mg/kg |
| COc1cc(CNC(=S)NCc2ccc(C(C)(C)C)cc2)c(Cl)cc1O [Ib, 1-(4-tert-butyl)-3-(2-chloro-4-hydroxy-5-methoxybenzyl) thiourea] | 3.86 nM |  | 0.1 nM | not affected |  |  |
| COc1cc(CNC(=S)NCc2ccc(C(F)(F)F)cc2)c(I)cc1O [Ic, 1-(4-trifluoromethyl)-3-(2-iodo-4-hydroxy-5-methoxybenzyl) thiourea] | 70 nM | 3 µM | 1 nM | not affected | significantly reduced | 7.20 (6.34-7.89) mg/kg |
| Oc1cc2c(cc1O)CN(C(=S)NCCc1ccc(Cl)cc1)CCC2 [capsazepine, reference compound] | 2340 nM |  |  |  |  |  |

From US7964642B2, “Vanilloid TRPV1 receptor antagonists” (Pharmeste S.R.L., priority 2004, dated 2011)
